Like-named read-outs stand apart in the source and are kept apart here. Residues, ends and D or L forms follow the SMILES beside them.
Legend:
[1] = Mouse intestinal secretion assay (suckling mouse assay); format: in vivo; design: key to Mouse intestinal secretion assay (suckling mouse): 1+ (lowest activity/potency); ++: Results are graded from 1+ (lowest activity/potency) to 5+ (highest activity/potency); +++: Results are graded from 1+ (lowest activity/potency) to 5+ (highest activity/potency); ++++: Results are graded from 1+ (lowest activity/potency) to 5+ (highest activity/potency); +++++: 5+ (highest activity/potency); conditions: for Mouse intestinal secretion assay (suckling mouse): graded activity/potency
Description: A relevant disease model is the suckling mouse model in which STa (5-18) is deposited into the stomach of 3-4 day old mice, and the accumulation of fluid in their intestines is determined gravimetrically (Parkinson et al., 1994). All GCC peptides were formulated to the desired concentration in Dulbecco's PBS (1×, No Ca++, no Mg++) containing […] immediately prior to dosing. Proteinase inhibitors were prepared as stock solutions in PBS and added to dosing solutions by serial dilution, as needed. The dosing solution (50 μL) was delivered into the stomachs of 2-4 day old mice (3 per dosing group) using a plastic tube attached to the needle of a 1 mL tuberculin syringe. After 3 hours, the animals were sacrificed and dissected to determine the individual weights of the intestines and the rest of the carcass, respectively.

[2] = system: GCC; conditions: GCC expressed in the jejunum and cecum of the calf; cited from earlier work
[3] = molecular target: T1, GCC (Homo sapiens, UniProt P25092); conditions: read-out: affinity for the interaction with GCC, cited from earlier work
T1 construct: human small intestine (n=20) and colon (n=24) specimens; host or cells: human small intestine and colon specimens

[4] = molecular target: T2, GCC (Rattus norvegicus, UniProt P23897); design: GCC expressed in the duodenum, cecum and colon; host or cells: intestinal tissue (duodenum, cecum, colon); conditions: GCC expressed in the duodenum, cecum and colon; read-out: affinity (Ki) for GCC; cited from earlier work
T2 sequence (P23897 23-1072): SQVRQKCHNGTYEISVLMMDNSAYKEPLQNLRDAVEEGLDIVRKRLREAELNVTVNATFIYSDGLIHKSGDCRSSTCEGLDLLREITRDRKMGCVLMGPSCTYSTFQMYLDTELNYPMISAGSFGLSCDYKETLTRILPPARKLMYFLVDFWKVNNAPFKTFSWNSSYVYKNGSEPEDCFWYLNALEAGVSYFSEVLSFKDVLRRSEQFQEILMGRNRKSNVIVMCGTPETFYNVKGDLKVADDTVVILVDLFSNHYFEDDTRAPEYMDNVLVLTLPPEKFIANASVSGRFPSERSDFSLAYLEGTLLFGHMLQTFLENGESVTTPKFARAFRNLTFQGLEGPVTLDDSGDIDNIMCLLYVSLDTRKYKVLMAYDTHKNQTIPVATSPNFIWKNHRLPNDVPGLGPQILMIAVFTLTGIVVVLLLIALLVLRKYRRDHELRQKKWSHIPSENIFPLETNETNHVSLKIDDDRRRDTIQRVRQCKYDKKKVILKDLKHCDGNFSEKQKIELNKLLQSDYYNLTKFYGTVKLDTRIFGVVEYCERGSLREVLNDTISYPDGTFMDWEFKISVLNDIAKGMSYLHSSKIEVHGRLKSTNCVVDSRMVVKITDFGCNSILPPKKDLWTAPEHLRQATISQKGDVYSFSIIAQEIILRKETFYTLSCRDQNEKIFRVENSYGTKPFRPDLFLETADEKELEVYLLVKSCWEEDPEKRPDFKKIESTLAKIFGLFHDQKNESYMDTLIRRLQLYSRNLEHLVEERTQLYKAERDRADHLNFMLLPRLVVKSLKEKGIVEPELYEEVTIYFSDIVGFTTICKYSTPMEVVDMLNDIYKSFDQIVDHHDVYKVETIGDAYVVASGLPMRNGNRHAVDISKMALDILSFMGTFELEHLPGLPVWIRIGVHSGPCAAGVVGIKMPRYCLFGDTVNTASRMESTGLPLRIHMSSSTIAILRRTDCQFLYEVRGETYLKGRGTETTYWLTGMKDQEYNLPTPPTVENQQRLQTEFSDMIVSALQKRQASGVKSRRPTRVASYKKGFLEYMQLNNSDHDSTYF

[5] = molecular target: T2, GCC; design: ligated intestinal loops from Sprague Dawley and Wistar rats; host or cells: rat jejunal and ileal loops in vivo; conditions: ileum relative to jejunum; cited from earlier work
[6] = Stability in rat intestinal fluid (Kessler 2008, 2009); format: in vitro ADME; conditions: ileal vs duodenal fluid
Description: According to the present invention, there are additional reasons why the distal jejunum, ileum, cecum and proximal colon are the preferred targets for a GCCR agonist. […] ST peptides are stable in the stomach but are rapidly degraded in the upper intestine. […] However, linaclotide is degraded rapidly in the duodenum. In intestinal fluids from both mouse, rat and humans the peptide loses its C-terminal tyrosine and forms an active metabolite. The half life for linaclotide is 3 minutes in rat intestinal fluid and 1 minute in human intestinal fluid. This metabolite is also rapidly degraded, first by reductases and then by proteases. The half life for the metabolite is about 5 minutes in rat intestinal fluid, and 3 minutes in human intestinal fluid. It is not detectable after 60 minutes in rat intestinal fluid, and after 18 minutes in human intestinal fluid (Kessler et al., 2009; Kessler et al., 2008). Thus, if released in the stomach or duodenum, an ST peptide analogue such as linaclotide will be active only in the duodenum. It is likely that an uroguanylin analogue such as plecanatide is degraded even more rapidly and therefore has an even shorter activity time.
This correlates with the free thiol concentrations in these locations and the activity of the Glutathione Reductase/Glutareduxin system activities in these locations.

[7] = cited from earlier work
[8] = cited from earlier work; remark: listed apart in the source
[9] = human intestinal fluid; cited from earlier work
[10] = 12 weeks treatment period; cited from earlier work

T1 sequence (P25092 24-1073): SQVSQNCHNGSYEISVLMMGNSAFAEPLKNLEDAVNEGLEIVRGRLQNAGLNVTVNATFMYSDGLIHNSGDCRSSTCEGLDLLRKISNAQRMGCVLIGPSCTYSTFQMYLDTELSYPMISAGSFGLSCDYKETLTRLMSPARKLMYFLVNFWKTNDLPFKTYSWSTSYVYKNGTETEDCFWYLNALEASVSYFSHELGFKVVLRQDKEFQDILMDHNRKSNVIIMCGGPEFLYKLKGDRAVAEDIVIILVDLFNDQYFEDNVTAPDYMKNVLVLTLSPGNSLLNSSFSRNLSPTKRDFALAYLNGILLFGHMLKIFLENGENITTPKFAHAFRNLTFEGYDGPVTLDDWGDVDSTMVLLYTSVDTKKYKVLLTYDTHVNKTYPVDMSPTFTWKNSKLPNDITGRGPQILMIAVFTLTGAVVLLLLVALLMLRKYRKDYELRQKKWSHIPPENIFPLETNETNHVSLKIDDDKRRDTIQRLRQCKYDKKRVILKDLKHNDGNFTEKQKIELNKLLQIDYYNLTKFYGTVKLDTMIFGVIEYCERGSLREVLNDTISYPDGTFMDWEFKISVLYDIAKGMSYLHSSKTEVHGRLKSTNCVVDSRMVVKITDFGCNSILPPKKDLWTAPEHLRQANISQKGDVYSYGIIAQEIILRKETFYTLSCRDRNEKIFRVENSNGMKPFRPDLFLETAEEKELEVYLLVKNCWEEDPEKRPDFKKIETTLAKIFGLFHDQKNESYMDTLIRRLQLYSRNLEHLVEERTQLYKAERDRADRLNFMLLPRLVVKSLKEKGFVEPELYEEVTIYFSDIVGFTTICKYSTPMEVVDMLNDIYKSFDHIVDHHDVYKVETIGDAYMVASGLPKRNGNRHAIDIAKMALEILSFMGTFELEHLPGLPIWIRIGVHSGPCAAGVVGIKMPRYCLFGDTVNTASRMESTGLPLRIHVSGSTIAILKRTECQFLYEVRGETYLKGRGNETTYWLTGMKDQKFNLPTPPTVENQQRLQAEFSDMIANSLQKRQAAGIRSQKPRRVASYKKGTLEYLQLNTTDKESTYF

Compound	Mouse intestinal secretion assay (suckling mouse) [1]	decrease in the affinity for its receptor [2] [log]	Ki ([3]; human colon specimens (n=24)) [nM]	Ki ([3]; human small intestine specimens (n=20)) [nM]	Ki [4] [nM]	duration of response in intestinal loops [5]	activity in the mouse intestinal secretion assay ([1]; FIG. 26, compared to STa)	more stable in ileal intestinal fluid compared to the duodenum [6]	stable in simulated gastric fluid for [7]	half life ([8]; rat duodenal fluid)	half life ([8]; rat ileal fluid)	half life ([8]; rat intestinal fluid) [min]	half life ([8]; rat jejunal fluid) [min]	half life [9] [min]	patients achieving primary efficacy endpoint (three or more CSBMs per week and increase of at least one CSBM per week over baseline for at least nine of 12 weeks) [10] [%]
H2N Asn Thr Phe Tyr Cys Cys Glu Leu Cys Cys Asn Pro Ala Cys Ala Gly Cys Tyr COOH [STa(1-18)]	++++	2	1.2	1.9	1 to 4	significantly longer duration of response in the Ileum relative to the jejunum	–	–	–	–	–	–	–	–	–
C[C@@H]1NC(=O)[C@@H]2CCCN2C(=O)[C@H](CC(N)=O)NC(=O)[C@@H]2CSSC[C@H](N)C(=O)N[C@H]3CSSC[C@H](NC1=O)C(=O)N[C@@H]([C@@H](C)O)C(=O)NCC(=O)N[C@H](C(=O)N[C@@H](Cc1ccc(O)cc1)C(=O)O)CSSC[C@H](NC(=O)[C@H](Cc1ccc(O)cc1)NC(=O)[C@H](CCC(=O)O)NC3=O)C(=O)N2 [Linaclotide, H2N Cys Cys Glu Tyr Cys Cys Asn Pro Ala Cys Thr Gly Cys Tyr COOH] (HELM PEPTIDE1{C.C.E.Y.C.C.N.P.A.C.T.G.C.Y}$PEPTIDE1,PEPTIDE1,1:R3-6:R3|PEPTIDE1,PEPTIDE1,2:R3-10:R3|PEPTIDE1,PEPTIDE1,5:R3-13:R3$$$V2.0)	+++	–	–	–	–	–	lower activity	up to 100 ×	up to 3 hours	about 0.44 minutes	about 30 minutes	3	0.36	1	21

— US8748575B2, “Therapeutic peptides” (Combimab, Inc., priority 2010, dated 2014)
